We go through one compound from PMC6054100, “Exploring the chemical space of the lysine-binding pocket of the first kringle domain of hepatocyte growth factor/scatter factor (HGF/SF) yields a new class of inhibitors of HGF/SF-MET binding” (Chemical Science, 2015).

The target of experiment [1] is T1, NK1 (Homo sapiens, UniProt P14210). Nature of the experiment: SPR steady-state binding to immobilized NK1 (Biacore T100). On the set-up: made in house; host or cells: Pichia pastoris. In a few lines:
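NK1 amine-coupled to a CM5 chip at 6000 RU; compound serial dilutions in PBS pH 7.4 with 0.05% Tween 20 injected at 30 μL min^–1, 1 min contact and 1 min dissociation. Binding constants derived from steady-state sensorgram analysis.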
In general terms: In SPR one partner is held on a chip, and binding of the other changes the refractive index at the surface.

Experiment [2] has as its target T1, NK1. Nature of the experiment: SPR fragment library screening against NK1. The format is binding. On the set-up: made in house; host or cells: Pichia pastoris. The conditions noted are these: for SPR response: normalised relative value against NK1. As for the experimental part:
Supplementary Materials and Methods
Fragment library screening and data analysis
Met567 (soluble truncated f ragment of the MET ectodomain, residues 25- 567), NK1 and t he SPH domain were immobilized on CM5 chips by amine coupling. NK1 was diluted into 10 m M phosphate pH 7.0 and the SPH domain into 10 mM acetate pH 5.5 to a final concentration of 2.5 μM and 1 μM, respectively, for coupling. The immobilization wizard within the Biacore T100 software was set to “aim for immobiliz ed level” of 8000 RU to achieve complete saturation of the chip surface.
W ith minor deviations, the procedure and conditions outlined below were used f or a ll screening s of an in-house fragment library of 1338 members against individual target proteins. The running buffer was PBS pH 7.4, 0.05% Tween 20, 0.25% DMSO (1% DMSO for Met567). Fragments were stored as 100 mM stock solutions in DMSO. Prior to screening, fragment samples were diluted to 500 μM (1 mM f or Met567) in running buffer.
Screening was performed in 96- we ll plates at a flow rate of 30 μl min-1 with 1 min sample injection f ollowed by dissociation f or 1 min and surf ace regeneration using 1 M NaCl f or 30 […]
post-regeneration baseline exceeded the pre- sample baseline by more than 10 RU, a second regeneration cycle with 50% ethylene glycol was used. In order to be able to correct for small variations in DMSO concentration between samples, eight solvent samples ranging from 0.012 to 1.5% DMSO were injected every 40th cycle. To monitor the binding capacity of the NK1, SPH and Met567 surfaces throughout the screening, injections of 500 μM HEPES (NK1), 0.25 μM Met567 (SPH) and 0.2 μM NK1 and 1% DMSO (Met567) were carried out every 40th cycle. The flow cell temperature was 25°C. NK1 and the SPH domain were immobilized on the same chip (channels 2 and 3 respectively) and were theref ore screened in parallel. Met567 was screened separately and results are published in an accompanying paper (W in t er et al. 2015, in revision).
For data analysis, fir st, all responses were reference and solvent corrected. 1 Next, equilibrium binding for every fragment was determined and hits established by applying several filters: sensorgram shape, upper and lower threshold. Typical sensorgrams from fragment screening show “square curves” in SPR due to the fast on and off rates and fragments not showing this response were discarded from further analysis. Binding levels are represented as response units (RU) but the SPR signal is a convolution of multiple parameters including target coupling density, target -binding activity, target molecular weight and molecular weight of each injected fragment. To be able to identif y hits accurately and to be able to compare responses between different plates and targets, data were normalised against these factors. First the theoretical maximum response for each fragment was calculated using equation 1:
RRmmm = CCCCCCCC ddCdCdd× MMffmCmdCd (Equation 1)
This RUmax value diff ers for each protein target because it depends on the molecular weight of the protein and the amount of protein immobilized on the chip (coupling density). The RUmax was then used to calculate the normalised relative SPR response:
NNNNNNNNNN NNNNr NrN SSR NNNrNrNN = RRcppppcppc× 100% (Equation 2) […]
fragment should cause upon binding. 100% response would be 1:1 binding wit h levels above 100% implying over-stoichiometric binding. […]
Fragment library screening to identify small molecule binders

T1 sequence (P14210 32-210 isoform P14210-6 limits assumed): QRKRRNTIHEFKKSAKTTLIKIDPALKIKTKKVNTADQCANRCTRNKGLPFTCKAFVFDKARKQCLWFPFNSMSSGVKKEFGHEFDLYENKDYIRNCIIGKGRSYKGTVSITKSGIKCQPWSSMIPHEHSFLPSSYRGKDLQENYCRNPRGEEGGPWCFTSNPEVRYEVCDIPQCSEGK

As usually defined, the Kd is a measure of binding affinity in units of concentration. In the case of `O=C(O)CCc1ccco1` [MB605], the “affinity for NK1 relative to HEPES” value in experiment [1] (fold better than HEPES) is “about ten times better affinity”. For the same compound, in experiment [1] (steady-state binding constant from SPR, fragment hits (Table 3, text), read-out: KD), the Kd came to 310 ± 40 µM. Also, the Ranking order in experiment [2] (based on fragment screening, rank among the 71 NK1 hits (ESI Tables S3-S7)) came to 1. Besides, the SPR response in experiment [2] (fragments 500 μM (ESI Tables S3-S7)) came to 215%; in experiment [2] (initial fragment screening, fragments 500 μM (Table 3)) it was 215%.
